The target in one assay is T1, Rab-like protein 3 (Homo sapiens, UniProt Q5HYI8).
T1 sequence (Q5HYI8 whole entry): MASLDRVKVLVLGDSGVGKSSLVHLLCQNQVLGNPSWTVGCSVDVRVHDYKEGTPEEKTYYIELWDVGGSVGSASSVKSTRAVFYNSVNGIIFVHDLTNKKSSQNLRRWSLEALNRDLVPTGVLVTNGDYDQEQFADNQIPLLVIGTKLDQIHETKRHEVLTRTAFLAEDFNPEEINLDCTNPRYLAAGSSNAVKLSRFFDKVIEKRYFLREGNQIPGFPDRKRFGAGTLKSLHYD

For assay [1], the target named is Eukaryotic translation initiation factor 2-alpha kinase 1 (Homo sapiens, UniProt Q9BQI3).
For another assay, the target named is T2, dCTP pyrophosphatase 1 (Homo sapiens, UniProt Q9H773).
T2 sequence (Q9H773 whole entry): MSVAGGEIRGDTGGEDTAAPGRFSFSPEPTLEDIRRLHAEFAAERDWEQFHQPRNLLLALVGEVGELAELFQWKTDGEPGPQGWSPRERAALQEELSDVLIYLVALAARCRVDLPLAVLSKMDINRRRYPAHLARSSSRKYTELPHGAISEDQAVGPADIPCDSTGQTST

For a further assay, the target named is Actin-related protein 2 (Homo sapiens, UniProt P61160).
In assay [2] the target is T3, ATP-dependent RNA helicase DHX30 (Homo sapiens, UniProt Q7L2E3).
T3 sequence (Q7L2E3 whole entry): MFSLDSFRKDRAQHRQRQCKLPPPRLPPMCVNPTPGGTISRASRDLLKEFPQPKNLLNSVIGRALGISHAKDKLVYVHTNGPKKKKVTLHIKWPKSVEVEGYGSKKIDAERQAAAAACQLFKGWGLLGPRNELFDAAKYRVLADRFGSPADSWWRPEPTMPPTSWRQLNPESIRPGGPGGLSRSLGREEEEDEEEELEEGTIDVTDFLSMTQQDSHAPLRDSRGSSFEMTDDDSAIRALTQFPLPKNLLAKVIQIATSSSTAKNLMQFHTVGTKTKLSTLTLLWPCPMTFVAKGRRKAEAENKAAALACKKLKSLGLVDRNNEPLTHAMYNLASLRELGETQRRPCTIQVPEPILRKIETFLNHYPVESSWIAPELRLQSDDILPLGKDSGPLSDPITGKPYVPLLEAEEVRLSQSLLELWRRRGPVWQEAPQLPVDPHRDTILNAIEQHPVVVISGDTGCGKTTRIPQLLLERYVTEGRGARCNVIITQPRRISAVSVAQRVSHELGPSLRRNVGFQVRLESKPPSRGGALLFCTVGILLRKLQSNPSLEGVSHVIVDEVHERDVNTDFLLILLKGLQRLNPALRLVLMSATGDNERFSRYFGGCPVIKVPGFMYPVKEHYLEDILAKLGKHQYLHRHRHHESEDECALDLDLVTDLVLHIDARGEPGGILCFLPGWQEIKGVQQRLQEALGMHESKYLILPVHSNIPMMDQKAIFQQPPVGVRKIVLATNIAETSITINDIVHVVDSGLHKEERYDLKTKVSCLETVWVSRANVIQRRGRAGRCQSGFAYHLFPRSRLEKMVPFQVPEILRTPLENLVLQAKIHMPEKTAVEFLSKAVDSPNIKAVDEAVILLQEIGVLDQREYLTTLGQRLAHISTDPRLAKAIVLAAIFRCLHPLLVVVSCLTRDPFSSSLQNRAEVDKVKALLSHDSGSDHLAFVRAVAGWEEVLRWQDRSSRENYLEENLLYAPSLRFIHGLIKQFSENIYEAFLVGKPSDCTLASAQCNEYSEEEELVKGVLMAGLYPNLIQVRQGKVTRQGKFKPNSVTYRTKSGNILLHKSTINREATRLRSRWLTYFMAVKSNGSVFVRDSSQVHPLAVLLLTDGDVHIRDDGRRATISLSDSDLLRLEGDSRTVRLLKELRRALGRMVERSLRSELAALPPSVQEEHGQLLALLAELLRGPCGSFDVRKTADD

Assay [3] deals with T4, Peroxisomal acyl-coenzyme A oxidase 1 (Homo sapiens, UniProt Q15067).
T4 sequence (Q15067 whole entry): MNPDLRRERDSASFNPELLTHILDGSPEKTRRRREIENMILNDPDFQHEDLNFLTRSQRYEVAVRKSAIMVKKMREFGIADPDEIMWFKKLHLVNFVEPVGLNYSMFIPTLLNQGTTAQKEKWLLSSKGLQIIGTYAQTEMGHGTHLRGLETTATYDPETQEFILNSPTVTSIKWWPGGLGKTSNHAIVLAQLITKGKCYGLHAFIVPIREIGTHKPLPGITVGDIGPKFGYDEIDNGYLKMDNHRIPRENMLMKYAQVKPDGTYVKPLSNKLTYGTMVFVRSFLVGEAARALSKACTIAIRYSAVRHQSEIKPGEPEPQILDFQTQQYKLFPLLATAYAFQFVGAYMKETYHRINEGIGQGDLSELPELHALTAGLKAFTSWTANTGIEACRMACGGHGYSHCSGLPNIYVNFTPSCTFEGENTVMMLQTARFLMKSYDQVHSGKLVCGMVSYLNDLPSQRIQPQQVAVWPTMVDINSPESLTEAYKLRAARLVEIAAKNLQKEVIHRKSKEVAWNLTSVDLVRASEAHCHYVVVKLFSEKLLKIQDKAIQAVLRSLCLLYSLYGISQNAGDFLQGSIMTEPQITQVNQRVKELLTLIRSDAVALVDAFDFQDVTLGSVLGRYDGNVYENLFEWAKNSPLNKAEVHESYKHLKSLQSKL

The target in assay [4] is Cyclin-dependent kinase 3 (Homo sapiens, UniProt Q00526).
For assay [5], the target named is Serine/threonine-protein kinase SIK2 (Homo sapiens, UniProt Q9H0K1).

Kd data for 7 molecules are collected here from ChEMBL document CHEMBL3991601, “The target landscape of clinical kinase drugs” (Science, 2017).

A word on the Kd: it is the equilibrium constant for the complex coming apart.

SMILES strings stand for the structures. The source made the active and inactive calls.
Note: in the data inactive means no Kd found up to 30 µM.

Sequence of Cyclin-dependent kinase 3 (Q00526 whole entry): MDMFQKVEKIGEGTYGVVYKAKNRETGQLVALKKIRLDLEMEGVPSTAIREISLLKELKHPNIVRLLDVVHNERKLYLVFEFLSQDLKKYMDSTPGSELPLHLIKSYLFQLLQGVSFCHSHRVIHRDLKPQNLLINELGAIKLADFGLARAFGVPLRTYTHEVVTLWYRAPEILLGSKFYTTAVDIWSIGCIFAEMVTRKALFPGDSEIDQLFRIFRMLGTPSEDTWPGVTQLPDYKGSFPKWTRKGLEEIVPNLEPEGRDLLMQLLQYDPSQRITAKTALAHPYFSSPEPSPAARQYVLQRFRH
Sequence of Serine/threonine-protein kinase SIK2 (Q9H0K1 whole entry): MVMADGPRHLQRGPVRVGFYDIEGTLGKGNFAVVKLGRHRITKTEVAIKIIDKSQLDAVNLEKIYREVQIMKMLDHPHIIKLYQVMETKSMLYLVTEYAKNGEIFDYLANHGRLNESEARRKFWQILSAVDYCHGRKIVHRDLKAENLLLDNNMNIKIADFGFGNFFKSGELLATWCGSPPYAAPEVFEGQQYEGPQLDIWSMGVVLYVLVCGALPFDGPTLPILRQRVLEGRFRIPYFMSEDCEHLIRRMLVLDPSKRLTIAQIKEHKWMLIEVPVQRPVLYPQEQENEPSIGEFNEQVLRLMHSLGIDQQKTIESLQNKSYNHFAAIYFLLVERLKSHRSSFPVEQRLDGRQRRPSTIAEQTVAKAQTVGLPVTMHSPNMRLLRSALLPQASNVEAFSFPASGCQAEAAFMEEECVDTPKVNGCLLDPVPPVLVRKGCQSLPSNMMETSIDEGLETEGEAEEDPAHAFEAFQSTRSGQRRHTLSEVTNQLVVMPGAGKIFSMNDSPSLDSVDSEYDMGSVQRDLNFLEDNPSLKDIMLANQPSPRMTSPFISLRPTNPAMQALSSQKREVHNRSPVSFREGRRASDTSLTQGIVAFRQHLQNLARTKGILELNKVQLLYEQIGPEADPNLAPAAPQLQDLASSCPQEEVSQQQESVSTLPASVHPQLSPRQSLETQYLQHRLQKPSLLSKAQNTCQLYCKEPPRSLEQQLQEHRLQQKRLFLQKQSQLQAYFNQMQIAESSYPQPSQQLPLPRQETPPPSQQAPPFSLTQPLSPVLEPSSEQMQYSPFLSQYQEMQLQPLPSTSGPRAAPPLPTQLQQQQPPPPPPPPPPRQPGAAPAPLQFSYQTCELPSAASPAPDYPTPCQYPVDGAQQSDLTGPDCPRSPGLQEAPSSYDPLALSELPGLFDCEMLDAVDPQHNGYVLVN
Sequence of Eukaryotic translation initiation factor 2-alpha kinase 1 (Q9BQI3 whole entry): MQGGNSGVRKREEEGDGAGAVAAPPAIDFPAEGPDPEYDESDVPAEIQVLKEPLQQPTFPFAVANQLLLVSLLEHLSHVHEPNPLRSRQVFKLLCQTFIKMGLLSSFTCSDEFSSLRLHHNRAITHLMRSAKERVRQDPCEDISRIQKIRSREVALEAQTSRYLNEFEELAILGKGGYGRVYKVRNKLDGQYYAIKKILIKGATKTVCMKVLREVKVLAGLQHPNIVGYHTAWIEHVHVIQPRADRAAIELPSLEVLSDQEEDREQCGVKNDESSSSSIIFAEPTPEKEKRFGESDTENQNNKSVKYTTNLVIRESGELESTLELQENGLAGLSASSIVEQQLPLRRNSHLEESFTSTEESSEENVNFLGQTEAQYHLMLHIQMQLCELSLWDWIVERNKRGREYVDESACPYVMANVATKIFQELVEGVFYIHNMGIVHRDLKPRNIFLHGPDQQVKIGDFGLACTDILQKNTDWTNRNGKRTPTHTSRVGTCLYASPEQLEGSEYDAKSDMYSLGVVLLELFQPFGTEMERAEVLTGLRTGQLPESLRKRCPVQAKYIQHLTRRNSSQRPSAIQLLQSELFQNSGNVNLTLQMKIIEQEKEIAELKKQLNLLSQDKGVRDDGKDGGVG

Regarding `CN1CCN(CCOc2cc(OC3CCOCC3)c3c(Nc4c(Cl)ccc5c4OCO5)ncnc3c2)CC1` [SARACATINIB], the Kd (on Rab-like protein 3; in assay [1]; at dCTP pyrophosphatase 1; on Actin-related protein 2; in assay [2]; in assay [3]) was > 30 µM (inactive) each time. In addition, the figures for the Kd in assay [4] and in assay [5] were > 30 µM (inactive) and 1.41 µM (active), respectively.

In the case of `Cn1cc(-c2cnn3c(N)c(Br)c([C@@H]4CCCNC4)nc23)cn1` [SCH-900776], the Kd (on Rab-like protein 3; in assay [1]; at dCTP pyrophosphatase 1; on Actin-related protein 2; in assay [2]; in assay [3]) was > 30 µM (inactive) throughout. Also, the Kd in assay [4] was > 30 µM (inactive); in assay [5] it was 0.27 µM (active).

`CO[C@H]1C[C@@H]2CC[C@@H](C)[C@@](O)(O2)C(=O)C(=O)N2CCCC[C@H]2C(=O)O[C@H]([C@H](C)C[C@@H]2CC[C@@H](OC(=O)C(C)(CO)CO)[C@H](OC)C2)CC(=O)[C@H](C)/C=C(\C)[C@@H](O)[C@@H](OC)C(=O)[C@H](C)C[C@H](C)/C=C/C=C/C=C/1C` [TEMSIROLIMUS]: the Kd (on Rab-like protein 3; in assay [1]; on dCTP pyrophosphatase 1; on Actin-related protein 2; in assay [2]; in assay [3]) was > 30 µM (inactive) each time. Further, the Kd in assay [4] and in assay [5] was > 30 µM (inactive) each time.

Turning to `COc1cc2c(Nc3ccc(Cl)c(Cl)c3F)ncnc2cc1OC[C@@H]1C[C@@H]2CN(C)C[C@@H]2C1` [TESEVATINIB], the Kd (at Rab-like protein 3; in assay [1]; on dCTP pyrophosphatase 1; on Actin-related protein 2; in assay [2]; in assay [3]) was > 30 µM (inactive) throughout. Moreover, the Kd in assay [4] and in assay [5] was > 30 µM (inactive) each time.

`O=C(Cc1ccc(-c2ccc(OCCN3CCOCC3)cc2)cn1)NCc1ccccc1` [TIRBANIBULIN]: the Kd (on Rab-like protein 3; in assay [1]; on dCTP pyrophosphatase 1; at Actin-related protein 2; in assay [2]; in assay [3]) was > 30 µM (inactive) each time. Moreover, the Kd in assay [4] and in assay [5] was > 30 µM (inactive) throughout.

Turning to `C[C@@H](N)c1ccc(C(=O)Nc2ccnc3[nH]ccc23)cc1` [Y-39983], the Kd (on Rab-like protein 3; in assay [1]; at dCTP pyrophosphatase 1; at Actin-related protein 2; in assay [2]; in assay [3]) was > 30 µM (inactive) throughout. The Kd in assay [4] and in assay [5] was > 30 µM (inactive) in each case.

Regarding `CN1C/C=C/CCOc2cccc(c2)-c2ccnc(n2)Nc2cccc(c2)C1` [ZOTIRACICLIB], the Kd (at Rab-like protein 3; in assay [1]; at dCTP pyrophosphatase 1; on Actin-related protein 2; in assay [2]; in assay [3]) was > 30 µM (inactive) throughout. Further, the Kd in assay [4] and in assay [5] was > 30 µM (inactive) in each case.
